Test systems include HCC-2998 colon; HOP-92 NSCLC; HL-60(TB) leukemia; HS 578T breast; OVCAR-8 ovarian; NCI/ADR-RES ovarian; MDA-MB-435; IGROV1 ovarian.
What all share (assay): inhibition of tumour cell growth, NCI panel, 48 h

GI50 and TGI data for 10 molecules are collected here from PubChem BioAssay (NCI).

Each structure is given as a SMILES string.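 Briefly, cells in 96-well plates were exposed to five compound concentrations for 48 h, and endpoints were estimated by linear interpolation. Here, GI50 denotes the concentration required for 50% inhibition of growth. TGI denotes the concentration required for complete inhibition of growth.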

On to `C/C(=C\CCc1ccsc1)CC/C=C(\C)CCCN1CCN(CCO)CC1`, for which the GI50 is 1.97 µM in the assay with HCC-2998 colon; 1.73 µM in the assay on HOP-92 NSCLC; 2.01 µM with HL-60(TB) leukemia; 2.7 µM with HS 578T breast; 4.84 µM with OVCAR-8 ovarian; 3.48 µM with NCI/ADR-RES ovarian. For the same molecule, the GI50 in the assay with MDA-MB-435 was 2.84 µM; in the assay with IGROV1 ovarian it was 4.68 µM. In addition, the TGI with HCC-2998 colon turned out to be 3.63 µM; in the assay with HOP-92 NSCLC, 7.48 µM; in the assay on HL-60(TB) leukemia, 4.14 µM; with HS 578T breast, 8.07 µM; in the assay with OVCAR-8 ovarian, 18.4 µM; in the assay with NCI/ADR-RES ovarian, 13.5 µM. Also, the values for the TGI with MDA-MB-435 and in the assay on IGROV1 ovarian were 8.66 µM and 18.9 µM, respectively.

As for `Cc1ccc2c(n1)C(=O)C(Cl)=C(Nc1ccc(N3CCN(C)CC3)cc1)C2=O`, the GI50 with HCC-2998 colon was 4.54 µM; with HOP-92 NSCLC it was 1.68 µM; with HL-60(TB) leukemia, 2.22 µM; in the assay on HS 578T breast, 2.47 µM; in the assay with OVCAR-8 ovarian it was 1.85 µM; with NCI/ADR-RES ovarian it was 3.09 µM. The GI50 in the assay with MDA-MB-435 is 1.88 µM; in the assay on IGROV1 ovarian it was 1.87 µM. Further, the TGI in the assay on HCC-2998 colon worked out at 17.5 µM; in the assay with HOP-92 NSCLC it was 3.21 µM; in the assay with HL-60(TB) leukemia it was 4.89 µM; in the assay with HS 578T breast, 7.49 µM; in the assay on OVCAR-8 ovarian, 3.4 µM; in the assay on NCI/ADR-RES ovarian it was 9.45 µM. For the same molecule, the values for the TGI in the assay with MDA-MB-435 and in the assay on IGROV1 ovarian were 3.46 µM and 3.6 µM, respectively.

Consider `Cc1ccn2c(-c3csc(Nc4cccc(O)c4)n3)c(C)nc2c1`, for which the GI50 in the assay with HCC-2998 colon was 2.81 µM; in the assay with HOP-92 NSCLC, 1.75 µM; in the assay on HL-60(TB) leukemia, 0.343 µM; with HS 578T breast, 1.17 µM; in the assay on OVCAR-8 ovarian, 0.611 µM; with NCI/ADR-RES ovarian it was 0.957 µM. Moreover, the GI50 with MDA-MB-435 was 0.059 µM; in the assay on IGROV1 ovarian, 4.43 µM. Besides, the TGI in the assay with HCC-2998 colon is 17.4 µM; in the assay with HOP-92 NSCLC, 22.7 µM; with HL-60(TB) leukemia, 22.1 µM; in the assay on HS 578T breast, 29.3 µM; in the assay with OVCAR-8 ovarian, 44.9 µM; in the assay with NCI/ADR-RES ovarian it was greater than 45.1 µM. Further, the TGI in the assay with MDA-MB-435 stood at 0.281 µM; in the assay with IGROV1 ovarian, 29.1 µM.

On to `c1cc2ccc3cc2cc1CNCCOCCNCc1ccc2ccc(cc2c1)CNCCOCCNC3`, for which the GI50 in the assay with HCC-2998 colon, with HL-60(TB) leukemia, in the assay on HS 578T breast, with OVCAR-8 ovarian, with NCI/ADR-RES ovarian and in the assay on MDA-MB-435 was greater than 100 µM each time. Also, the GI50 in the assay with IGROV1 ovarian is greater than 100 µM. Further, the TGI in the assay with HCC-2998 colon, in the assay with HL-60(TB) leukemia, with HS 578T breast, in the assay with OVCAR-8 ovarian, in the assay with NCI/ADR-RES ovarian and in the assay with MDA-MB-435 was greater than 100 µM each time. The molecule also gave a TGI with IGROV1 ovarian greater than 100 µM.

Turning to `O=C(NCCSSCCNC(=O)/C(Cc1ccc(O)c(Br)c1)=N/O)/C(Cc1ccc(O)c(Br)c1)=N/O`, the TGI with HCC-2998 colon was 8.11 µM; in the assay with HOP-92 NSCLC, 22.9 µM; in the assay with HL-60(TB) leukemia, greater than 22.6 µM; in the assay with HS 578T breast, greater than 50 µM; with OVCAR-8 ovarian it was greater than 50 µM; with NCI/ADR-RES ovarian it was 7.97 µM. Moreover, the TGI was greater than 24.9 µM in the assay with MDA-MB-435 and 7.15 µM with IGROV1 ovarian.

As for `N#Cc1ccc(N2Cc3cc(Cl)ccc3OC3=C2C(=O)N(Cc2ccc(F)cc2)C3=O)cc1`, the GI50 was 0.973 µM in the assay on HCC-2998 colon; 0.58 µM in the assay with HOP-92 NSCLC; 0.23 µM with HL-60(TB) leukemia; 1.02 µM in the assay on HS 578T breast; 1.43 µM with OVCAR-8 ovarian; 0.85 µM with NCI/ADR-RES ovarian. For the same molecule, the values for the GI50 in the assay with MDA-MB-435 and with IGROV1 ovarian were 0.607 µM and 0.804 µM, respectively. Also, the TGI with HCC-2998 colon amounted to 2.89 µM; in the assay with HOP-92 NSCLC, 1.32 µM; in the assay with HL-60(TB) leukemia, 0.469 µM; with HS 578T breast, 13.6 µM; in the assay on OVCAR-8 ovarian it was 3.12 µM; with NCI/ADR-RES ovarian, 8.58 µM. For the same molecule, the TGI with MDA-MB-435 is 1.44 µM; in the assay on IGROV1 ovarian it was 2.14 µM.

With `COc1cc(C2CC(=O)c3c(C)nn(-c4nc5ccccc5[nH]4)c3C2)cc(OC)c1OC` (configuration not stated), the GI50 with HCC-2998 colon, in the assay with NCI/ADR-RES ovarian and in the assay on MDA-MB-435 was greater than 100 µM in each case. Moreover, the TGI in the assay with HCC-2998 colon, in the assay with NCI/ADR-RES ovarian and in the assay with MDA-MB-435 was greater than 100 µM each time.

As to `Cc1cc2oc(=O)c(Cl)c(Cl)c2c(C)c1Cl`, the TGI was 14.1 µM in the assay with HCC-2998 colon; 7.45 µM in the assay on HOP-92 NSCLC; 4.93 µM in the assay with HL-60(TB) leukemia; 9.64 µM in the assay with HS 578T breast; 10.4 µM with OVCAR-8 ovarian; 38.4 µM with NCI/ADR-RES ovarian. Further, the results for the TGI with MDA-MB-435 and with IGROV1 ovarian were 15.3 µM and 15.8 µM, respectively.

For `Cc1ccc(-n2nnc3c(sc4ccccc43)c2=O)cc1`, the GI50 with HCC-2998 colon was 68.7 µM; in the assay on HOP-92 NSCLC, 1.54 µM; in the assay on HL-60(TB) leukemia it was greater than 100 µM; in the assay with HS 578T breast, 2.18 µM; in the assay with OVCAR-8 ovarian it was 6.1 µM; in the assay on NCI/ADR-RES ovarian, 9.35 µM. Besides, the GI50 was 14.6 µM with MDA-MB-435 and 4.16 µM with IGROV1 ovarian. Also, the TGI is greater than 100 µM in the assay with HCC-2998 colon; 6.82 µM in the assay with HOP-92 NSCLC; greater than 100 µM with HL-60(TB) leukemia; 8.71 µM in the assay on HS 578T breast; greater than 100 µM in the assay on OVCAR-8 ovarian; greater than 100 µM with NCI/ADR-RES ovarian. The TGI with MDA-MB-435 and with IGROV1 ovarian was greater than 100 µM in each case.

Take `O=C1c2ccccc2-c2c1c1c(O)cccc1n2CCCc1ccccc1`: the GI50 in the assay on HCC-2998 colon is 2.35 µM; with HOP-92 NSCLC it was 45.3 µM; in the assay with HL-60(TB) leukemia it was 28.1 µM; in the assay on HS 578T breast it was 41.7 µM; with OVCAR-8 ovarian, 31.7 µM; in the assay on NCI/ADR-RES ovarian, 4.47 µM. The GI50 in the assay with MDA-MB-435 is 16.7 µM; in the assay on IGROV1 ovarian, 17.1 µM. Moreover, the TGI with HCC-2998 colon is 6.01 µM; with HOP-92 NSCLC it was greater than 100 µM; in the assay with HL-60(TB) leukemia it was greater than 100 µM; in the assay with HS 578T breast it was greater than 100 µM; in the assay with OVCAR-8 ovarian, greater than 100 µM; in the assay on NCI/ADR-RES ovarian, 51.1 µM. The TGI in the assay with MDA-MB-435 and with IGROV1 ovarian was greater than 100 µM throughout.
